Test results from patent publication US5990158A, “Carboxylic acid derivatives, method of manufacturing the same and therapeutic agents containing these compounds” (Kotobuki Seiyaku Co., Ltd., priority 1996, dated 1999).

Tests used:
MMP-2 (gelatinase A) = target: T1, MMP-2 (gelatinase A) (Homo sapiens, UniProt P08253); experiment: MMP-2 (gelatinase A) inhibitory activity, FITC-labeled type IV collagen degradation; type: biochemical; settings: 50% inhibition of collagen type IV degradation; activated pro MMP-2 from transfected COS-1 cells; 42° C., 4 h
T1 construct: made in house; host or cells: COS-1 cells transfected with human pro-MMP-2 cDNA (secreted into culture medium)
T1 sequence (P08253 110-660): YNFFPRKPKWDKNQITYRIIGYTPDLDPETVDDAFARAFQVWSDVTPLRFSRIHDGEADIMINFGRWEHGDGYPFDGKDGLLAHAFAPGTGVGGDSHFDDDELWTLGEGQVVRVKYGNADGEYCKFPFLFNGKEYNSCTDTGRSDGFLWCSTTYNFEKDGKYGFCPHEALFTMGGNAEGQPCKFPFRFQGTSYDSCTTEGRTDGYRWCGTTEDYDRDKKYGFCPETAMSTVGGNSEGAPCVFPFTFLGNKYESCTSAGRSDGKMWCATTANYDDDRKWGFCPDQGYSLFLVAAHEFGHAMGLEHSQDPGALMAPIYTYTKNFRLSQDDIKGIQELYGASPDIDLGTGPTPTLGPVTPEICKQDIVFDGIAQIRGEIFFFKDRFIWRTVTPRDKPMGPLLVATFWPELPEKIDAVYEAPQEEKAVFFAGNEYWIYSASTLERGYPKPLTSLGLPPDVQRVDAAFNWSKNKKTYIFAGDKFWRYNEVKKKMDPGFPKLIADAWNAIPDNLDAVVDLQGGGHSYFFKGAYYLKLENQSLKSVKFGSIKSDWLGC
Experimental: (§1) Experiment 2: MMP-2 (gelatinase A) and MMP-9 (gelatinase B) inhibitory activities.
(§2) Pro MMP-2 was obtained from culture medium separated from human pro-MMP-2 cDNA tranfected COS-1 cells. It was activated by 1 mM (p-aminophenyl)mercury acetic acid, and MMP-9, derived human fibrosarcome,was purchased from Yagai Co. Ltd. Inhibition of both enzyme activities were estimated by enzyme assay using type IV collagenase activity assay kit (Yagai Co. Ltd., Biswaz, C. et al., J. Cell.Biochem., 28, 39 (1984)). MMP-2 or MMP-9 (0.01 U/ml), test compound (several concentrations), and FITC-labeled type IV collagen (derived bovine placenta, 25 μg) were incubated in 100 μl of 0.05M Tris - HCl buffer (pH 7.5) containing 200 mM NaCl and 5 mM CaCl2 at 42° C. for 4 h. Inhibitory activity of compound was evaluated by same as that of MMP-1 assay. Unchanged type IV collagen was precipitated by centrifugation, and the degradation percent of substrate was calculated by comparison with a fluorescence intensity of heat denatured substrate as 100%. Inhibition of enzyme activity was expressed as an IC50 value which was the concentration of test compound necessary to produce 50% inhibition of collagen type IV degradation by enzyme.

MMP-9 (gelatinase B) = target: T2, MMP-9 (gelatinase B) (Homo sapiens, UniProt P14780); experiment: MMP-9 (gelatinase B) inhibitory activity, FITC-labeled type IV collagen degradation; type: biochemical; settings: 50% inhibition of collagen type IV degradation; MMP-9 derived from human fibrosarcoma; 42° C., 4 h
T2 construct: purchased Yagai Co. Ltd; host or cells: human fibrosarcoma
T2 sequence (P14780 94-707): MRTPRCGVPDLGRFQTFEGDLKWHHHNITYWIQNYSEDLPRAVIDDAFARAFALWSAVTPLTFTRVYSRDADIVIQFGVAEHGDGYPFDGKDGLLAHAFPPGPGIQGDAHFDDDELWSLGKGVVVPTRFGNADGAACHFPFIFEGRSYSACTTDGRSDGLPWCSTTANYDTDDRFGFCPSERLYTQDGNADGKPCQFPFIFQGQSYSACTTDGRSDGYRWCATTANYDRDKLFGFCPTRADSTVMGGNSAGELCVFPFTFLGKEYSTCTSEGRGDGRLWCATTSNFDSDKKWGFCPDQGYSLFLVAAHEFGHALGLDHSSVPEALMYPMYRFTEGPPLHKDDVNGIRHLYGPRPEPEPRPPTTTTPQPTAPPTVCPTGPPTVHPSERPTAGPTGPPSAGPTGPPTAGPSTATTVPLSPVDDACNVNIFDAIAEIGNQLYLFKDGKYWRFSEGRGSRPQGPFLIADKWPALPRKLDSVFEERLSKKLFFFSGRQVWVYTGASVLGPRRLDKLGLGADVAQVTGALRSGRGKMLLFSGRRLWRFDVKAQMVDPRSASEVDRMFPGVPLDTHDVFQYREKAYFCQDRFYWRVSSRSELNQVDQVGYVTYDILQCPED
Experimental: as §1, §2

| Compound | IC50 (MMP-2 (gelatinase A)) | IC50 (MMP-9 (gelatinase B)) |
| --- | --- | --- |
| CNC(=O)[C@H](Cc1ccccc1)NC(=O)[C@H](CCc1ccc2cccccc1-2)CC(=O)O [Compound 2, N-[(2R)-2-(1'-Carboxymethyl)-4-(azulene-1-yl)butyroyl]-L-phenylalanine N-Methylamide] | 0.39 µM | 1.3 µM |
| CNC(=O)[C@H](Cc1ccc(OC)cc1)NC(=O)[C@H](CCc1ccc2cccccc1-2)CC(=O)O [Compound 3, (2S)-2-[(2R)-2-(1'-Carboxymethyl)-4-(azulene-1-yl)butyroyl)amino-3-(4-methoxy)phenylpropanoylmethylamide] | 0.24 µM | 0.28 µM |
| CNC(=O)[C@@H](NC(=O)[C@H](CCc1ccc2cccccc1-2)CC(=O)O)C(C)(C)C [Compound 4, N-[(2R)-2-(1'-Carboxymethyl)-4-(azulene-1-yl)butyroyl]-L-tert-leucine N-Methylamide] | 1 µM | 0.3 µM |
| CNC(=O)[C@H](Cc1ccccc1)NC(=O)[C@H](CCCc1ccc2cccccc1-2)CC(=O)O [Compound 5, N-[(2R)-2-(1'-Carboxymethyl)-5-(azulene-1-yl)pentanoyl]-L-phenylalanine N-Methylamide] | > 10 µM | 2.8 µM |
| CCOc1ccc(C[C@H](NC(=O)[C@H](CCc2ccc3cccccc2-3)CC(=O)O)C(=O)NC)cc1 [Compound 6, (2S)-2-[(2R)-2-(1'-Carboxymethyl)-4-(azulene-1-yl)butyroyl]amino-3-(4-ethoxy)phenylpropanoyl methylamide] | 1 µM | 0.36 µM |
| CNC(=O)[C@H](Cc1ccccc1)NC(=O)[C@H](CCCCc1ccc2cccccc1-2)CC(=O)O [Compound 7, N-[(2R)-2-(1'-Carboxymethyl)-6-(azulene-1-yl)hexanoyl]-L-phenylalanine N-Methylamide] | > 10 µM | 3 µM |
| CNC(=O)[C@H](Cc1ccccc1)NC(=O)[C@H](CCOc1ccc(OC)cc1)CC(=O)O [Compound 8, N-[(2R)-2-(1'-Carboxymethyl)-4-[(4-methoxyphenyl)oxy]butyroyl]-L-phenylalanine N-Methylamide] | 0.16 µM | 0.035 µM |
| CCOc1ccc(OCC[C@H](CC(=O)O)C(=O)N[C@@H](Cc2ccccc2)C(=O)NC)cc1 [Compound 9, N-[(2R)-2-(1'-Carboxymethyl)-4-[(4-ethoxyphenyl)oxy]butyroyl]-L-phenylalanine N-Methylamide] | 0.049 µM | 0.039 µM |
| CNC(=O)[C@H](Cc1ccccc1)NC(=O)[C@H](CCCOc1ccc(OC)cc1)CC(=O)O [Compound 10, N-[(2R)-2-(1'-Carboxymethyl)-5-[(4-methoxyphenyl)oxy]pentanoyl]-L-phenylanine N-Methylamide] | 0.05 µM | 0.0051 µM |
| COc1ccc(OCCC[C@H](CC(=O)O)C(=O)N[C@@H](Cc2ccccc2)C(=O)NC(C)(C)C)cc1 [Compound 11] | 0.1 µM | 0.014 µM |
| COc1ccc(OCCC[C@H](CC(=O)O)C(=O)N[C@@H](Cc2ccccc2)C(=O)NCCS(N)(=O)=O)cc1 [Compound 12, 2-[[N-(2R)-2-(1'-Carboxymethyl)-5-[(4-methoxyphenyl)oxy]pentanoyl]-L-phenylalanyl]amino-ethanesulfonamid] | 0.021 µM | 0.003 µM |
| CCOc1ccc(OCCC[C@H](CC(=O)O)C(=O)N[C@@H](Cc2ccccc2)C(=O)NC)cc1 [Compound 13, N-[(2R)-2-(1'-Carboxymethyl)-5-[(4-ethoxyphenyl)oxy]pentanoyl]-L-phenylalanine N-Methylamide] | 0.018 µM | 0.013 µM |
| CNC(=O)[C@H](Cc1ccccc1)NC(=O)[C@H](CCCCOc1ccc(OC)cc1)CC(=O)O [Compound 14] | 0.16 µM | 0.12 µM |
| CCOc1ccc(OCCCC[C@H](CC(=O)O)C(=O)N[C@@H](Cc2ccccc2)C(=O)NC)cc1 [Compound 15, N-((2R)-2-(1'-Carboxymethyl)-6-[(4-ethoxyphenyl)oxy]hexanoyl]-L-phenylananine N-Methylamide] | 0.061 µM | 0.42 µM |
| C=CCOc1ccc(OCCCC[C@H](CC(=O)O)C(=O)N[C@@H](Cc2ccccc2)C(=O)NC)cc1 [Compound 16, N-[(2R)-2-(1'-Carboxymethyl)-6-[(4-allyloxyphenyl)oxy]hexanoyl]-L-phenylananine N-Methylamide] | 0.18 µM | 1 µM |
| CNC(=O)[C@H](Cc1ccc(OC)cc1)NC(=O)[C@H](CCOc1ccc(OC)cc1)CC(=O)O [Compound 17, (2S)-2-[(2R)-2-(1'-Carboxymethyl)-4-[(4-methoxyphenyl)-oxy]butyroyl]amino-3-(4-methoxy)phenylpropanoylmethylamide] | 0.046 µM | 0.013 µM |
| CNC(=O)[C@H](Cc1ccc(OC)cc1)NC(=O)[C@H](CCCOc1ccc(OC)cc1)CC(=O)O [Compound 18] | 0.25 µM | 0.0054 µM |
| COc1ccc(C[C@H](NC(=O)[C@H](CCCOc2ccc(OC)cc2)CC(=O)O)C(=O)NC(C)(C)C)cc1 [Compound 19, (2S)-2-[(2R)-2-(1'Carboxymethyl)-5-[(methoxyphenyl)oxy]pentanoyl]amino-3-(4-methoxy)phenylpropanoyl-tert-butylamide] | 0.076 µM | 0.013 µM |
| COc1ccc(C[C@H](NC(=O)[C@H](CCCOc2ccc(OC)cc2)CC(=O)O)C(=O)NCCS(N)(=O)=O)cc1 [Compound 20] | 0.016 µM | 0.0029 µM |
| CNC(=O)[C@H](Cc1ccc(OC)cc1)NC(=O)[C@H](CCCCOc1ccc(OC)cc1)CC(=O)O [Compound 21, (2S)-2-[(2R)-2-(1'-Carboxymethyl)-6-[(4-methoxyphenyl)-oxy]hexanoyl]amino-3-(4-methoxy)phenylpropanoylmethylamide] | 0.16 µM | 0.052 µM |
| CCOc1ccc(C[C@H](NC(=O)[C@H](CCCOc2ccc(OC)cc2)CC(=O)O)C(=O)NC)cc1 [Compound 22, (2S)-2-[(2R)-2-(1'-Carboxymethyl)-5-[(4-methoxyphenyl)-oxy]pentanoyl]amino-3-(4-ethoxy)phenylpropanoylmethylamide] | 0.14 µM | 0.0095 µM |
| CCOc1ccc(C[C@H](NC(=O)[C@H](CCCCOc2ccc(OC)cc2)CC(=O)O)C(=O)NC)cc1 [Compound 23, (2S)-2-[(2R)-2-(1'-Carboxymethyl)-6-[(4-methoxyphenyl)oxy]hexanoyl]amino-3-(4-ethoxy)phenylpropanoylmethylamide] | 0.2 µM | 0.051 µM |
| CNC(=O)[C@@H](NC(=O)[C@H](CCCOc1ccc(OC)cc1)CC(=O)O)C(C)(C)C [Compound 24, N-[(2R)-2-(1'-Carboxymethyl)-5-[(4-methoxyphenyl)oxy]pentanoyl]-L-tert-leucine N-Methylamide] | 0.14 µM | 0.0072 µM |
| COc1ccc(OCCC[C@H](CC(=O)O)C(=O)N[C@H](C(=O)NC(C)(C)C)C(C)(C)C)cc1 [Compound 25, N-[(2R)-2-(1'-Carboxymethyl)-5-[(4-methoxyphenyl)oxy]pentanoyl]-L-tert-leucine N-tert-Butylamide] | 0.2 µM | 0.028 µM |
| COc1ccc(OCCC[C@H](CC(=O)O)C(=O)N[C@H](C(=O)NCCS(N)(=O)=O)C(C)(C)C)cc1 [Compound 26] | 0.048 µM | 0.0065 µM |
| CNC(=O)[C@@H]1Cc2ccccc2CN1C(=O)[C@H](CCCOc1ccc(OC)cc1)CC(=O)O [Compound 27, N-[(2R)-2-(1'-Carboxymethyl)-5-[(4-methoxyphenyl)oxy]pentanoyl]-L-tetrahydroisoquinoline N-Methylamide] | > 10 µM | 1.5 µM |
| CNC(=O)[C@H](Cc1ccccc1)NC(=O)[C@H](CCc1ccc2cccccc1-2)CC(=O)NO [Compound 32, N-[(2R)-2-(2'-Hydroxyamino-2'-oxo-ethyl)-4-(azulene-1-yl)-butyloyl]-L-phenylanine N-Methylamide] | 3.2 µM | 0.4 µM |
| CNC(=O)[C@H](Cc1ccc(OC)cc1)NC(=O)[C@H](CCc1ccc2cccccc1-2)CC(=O)NO [Compound 33, (2S)-2-[(2R)-2-(2'-Hydroxyamino-2'-oxo-ethyl)-4-(azulene-1-yl)butyloyl]amino-3-(4-methoxy)phenylpropanoylmethylamide] | 0.16 µM | 0.018 µM |
